What was measured:
Format in all cases: in vivo, mouse
[1] = system: naturally aged C57BL6J mice; assay: Frailty (open field, wire hanging, grip strength, muscle and fat tissue) in naturally aged mice, Example 21-7, Table 23; settings: for Fat Mass (g): inguinal and epididymal fat, untreated aged 0.82 (±0.19); for Muscle Mass (g): quadriceps and gastrocnemius, untreated aged 0.64 (±0.06); for Grip Sterenght Test Strength (%) / Open Field Test Time in Center (%) / Wire Hanging Test Time (%): untreated aged = 100%
Method: (§1) 22-month-old female C57BL6J mice (KRIBB Laboratory Animal Resource Center) were acclimated to the experimental environment for one week, after which the aged mice were randomly assigned to experimental and control groups. Eight-week-old, non-aged mice served as controls. LX-403 was mixed in a 10% ethanol solution of PEG400 and administered orally at a concentration of 25 mg/kg daily for 21 days, or administered to the skin, joints, or eyes at a concentration of 1 μM. LX-1801 was mixed in distilled water with 4% DMSO, 30% PEG300, and 5% Tween80 and administered to the skin, joints, or eyes at a concentration of 0.4 μM daily for 21 days. LX-2001 was mixed in PBS and administered to the skin, joints, or eyes at a concentration of […] daily for 21 days. LX-2002 was mixed in distilled water with 4% DMSO, 30% PEG300, and 5% Tween80 and administered to the skin, joints, or eyes at a concentration of 2 μM daily for 21 days. […] LX-2005 was mixed in distilled water with 4% DMSO, 30% PEG300, and 5% Tween80 and administered to the skin, joints, or eyes at a concentration of 90 μM daily for 21 days. LX-2007 was mixed in distilled water with 4% DMSO, 30% PEG300, and 5% Tween80 and administered to the skin, joints, or eyes at a concentration of 90 μM daily for 21 days. […] LX-3002 was mixed in distilled water with 4% DMSO, 30% PEG300, and 5% Tween80 and administered orally at a concentration of 10 mg/kg daily for 21 days. […] LX-5411 was mixed in 5% PBS and administered orally at a concentration of 10 mg/kg daily for 21 days or administered to the skin, joints, or eyes at a concentration of 3 μM. LX-5701 was mixed in PBS and administered orally at a concentration of 360 mg/kg daily for 21 days. LX-6807 was mixed in saline and administered intraperitoneally at a concentration of 1 mg/kg daily for 21 days. LX-2101 or LX-2102 was mixed in PBS solution with 5% DMSO and administered intraperitoneally at a concentration of 20 mg/kg or 10 mg/kg, respectively, daily for 21 days. The control group received only the solution in the same volume. After the end of drug administration, the methods described in each example below were performed.
To analyze frailty due to aging in mice, an activity test (open field test), an endurance test (wire hanging test), and a muscle strength and grip strength test (grip strength test) were performed using the same method as in Example 7-7 of WO2023-085787 A1. The table below quantitatively represents the results of activity, endurance, muscle strength, and grip strength, which are criteria for assessing frailty, under conditions in which aging was induced and the test compound was not administered or administered. The amount of each evaluation after aging was calculated as 100% and compared with the amount of each evaluation after treatment with the drug of the present invention.

[2] = system: naturally aged C57BL6J mice; assay: Joint aging (arthritis marker mRNA) in naturally aged mice, Example 21-12, Table 27
Method: as §1
RNA was extracted from joint tissue as described in Example 7-2 of WO2023-085787 A1, and qRT-PCR was performed using the synthesized cDNA. […] To analyze joint pain due to joint aging, hotplate analysis was performed. Specifically, thermal pain thresholds were measured using a hot plate. After acclimating mice to a temperature of 30° C. for 10 minutes, the time required for hind paw licking or jumping responses to occur at 55° C. was measured. To prevent tissue damage, the response was measured for less than 30 seconds, and the average value was used from five measurements.

[3] = system: naturally aged C57BL6J mice; assay: Geriatric depression and anxiety in aged mice, Example 21-8; settings: for amount of SASP, p16, SA-β-gal, lipofuscin / symptoms of geriatric depression and anxiety: aged mice; for amount of SASP in serum and tissues: mice of Examples 21-5 and 21-6
Source text: The amount of senescent-associated secretory factor (SASP) in serum and tissues collected from mice of Examples 21-5 and 21-6 was reduced by treatment with LX-5701, LX-2101, or LX-2102. It was confirmed that removing senescent cells, which increase with aging in mice, and effectively reducing the amount of senescent-associated secretory factor (SASP) can improve symptoms of geriatric depression and anxiety.

[4] = system: bleomycin-induced scleroderma C57BL6J mice; assay: Bleomycin scleroderma in mice (p16, COL1A1 mRNA, dermal thickness), Example 24-2, Table 48; settings: daily for 21 days; for p16 mRNA: untreated 100 (±8.8); for Col1a1 mRNA: untreated 100 (±13.2); for Dermal Thickness: untreated 459 (±38.7)
Method: Eight-week-old male C57BL6J mice (KRIBB Laboratory Animal Resource Center) were acclimated to the experimental environment for one week. Then, 100 μl of the anticancer drug bleomyxin (1 mg/ml) was administered subcutaneously every other day to induce scleroderma for more than three weeks. Mice with scleroderma were randomly assigned to experimental and control groups. LX-403 was mixed with a 10% ethanol solution of PEG400 and administered orally at a concentration of 25 mg/kg daily for 21 days or administered directly to the skin at a concentration of 1 μM. LX-1801 was mixed with a solution of 4% DMSO, 30% PEG300, and 5% Tween80 in distilled water and administered subcutaneously at a concentration of 0.4 μM daily for 21 days. LX-2001 was mixed in PBS and administered intradermally at a concentration of 2 μM daily for 21 days. LX-2002 was mixed in distilled water with 4% DMSO, 30% PEG300, and 5% Tween80 and administered intradermally at a concentration of 2 μM daily for 21 days. […] LX-2005 was mixed in distilled water with 4% DMSO, 30% PEG300, and 5% Tween80 and administered intradermally at a concentration of 90 μM daily for 21 days. LX-2007 was mixed in distilled water with 4% DMSO, 30% PEG300, and 5% Tween80 and administered intradermally at a concentration of 90 μM daily for 21 days. […] LX-3002 was mixed with distilled water with 4% DMSO, 30% PEG300, 5% tween80 and administered orally at 10 mg/kg daily for 21 days. […] LX-5411 was mixed with 5% PBS and administered orally at 10 mg/kg daily for 21 days or subcutaneously at 3 μM. LX-5701 was mixed with PBS and administered orally at 360 mg/kg daily for 21 days. LX-6807 was mixed in saline and administered intraperitoneally at a concentration of 1 mg/kg daily for 21 days. The control group was administered only the solution in the same volume. After the end of drug administration, mice were sacrificed in the same manner as in Example 7-2 of WO2023-085787 A1, RNA was extracted from skin tissue, and the synthesized cDNA was used to perform and analyze the mRNA amounts of p16 and collagen (COL1A1) by qRT-PCR (quantitative real-time PCR). In addition, to measure the degree of bleomycin-induced skin hardening, skin frozen sections were stained with H/E (Hematoxylin/Eosin), and the thickness of the dermis was observed under an optical microscope.

CC1(C)CC[C@]2(NC(=O)C(C)(F)F)CC[C@]3(C)[C@H](C(=O)C=C4[C@@]5(C)C=C(C#N)C(=O)C(C)(C)[C@@H]5CC[C@]43C)[C@@H]2C1 [LX-2101, Omaveloxolone]
Fat Mass (g) [1]: 1.15 (±0.09) g
Muscle Mass (g) [1]: 0.72 (±0.05) g
Grip Sterenght Test Strength (%) [1]: 121 (±4.1) %
Open Field Test Time in Center (%) [1]: 145 (±10.2) %
Wire Hanging Test Time (%) [1]: 117 (±3.8) %
Col2a1 mRNA (fold) [2]: 1.9 (±0.2) fold
amount of SASP, p16, SA-β-gal, lipofuscin [3]: reduced
symptoms of geriatric depression and anxiety [3]: improved
amount of SASP in serum and tissues [3]: reduced

O=C1C2CCN(CC2)C1CNC(=O)C(F)(F)F (centres unmarked) [LX-5701]
Fat Mass (g) [1]: 0.88 (±0.1) g
Muscle Mass (g) [1]: 0.66 (±0.1) g
Grip Sterenght Test Strength (%) [1]: 119 (±3.8) %
Open Field Test Time in Center (%) [1]: 259 (±38.6) %
Wire Hanging Test Time (%) [1]: 141 (±7.3) %
Col2a1 mRNA (fold) [2]: 2.7 (±0.3) fold
p16 mRNA [4]: 64 (±9.4) %
Col1a1 mRNA [4]: 59.7 (±17.3) %
Dermal Thickness [4]: 358 (±21.4) μm
amount of SASP, p16, SA-β-gal, lipofuscin [3]: reduced
symptoms of geriatric depression and anxiety [3]: improved
amount of SASP in serum and tissues [3]: reduced

Cc1cccc([C@H](C)c2cnc[nH]2)c1C [LX-6807, Dexmedetomidine]
Fat Mass (g) [1]: 1.08 (±0.15) g
Muscle Mass (g) [1]: 0.74 (±0.04) g
Grip Sterenght Test Strength (%) [1]: 128 (±6.2) %
Open Field Test Time in Center (%) [1]: 269 (±13.3) %
Wire Hanging Test Time (%) [1]: 156 (±16.4) %
Col2a1 mRNA (fold) [2]: 3.5 (±0.2) fold
p16 mRNA [4]: 64.7 (±3.5) %
Col1a1 mRNA [4]: 37.6 (±2.5) %
Dermal Thickness [4]: 315 (±29.8) μm
amount of SASP, p16, SA-β-gal, lipofuscin [3]: reduced
symptoms of geriatric depression and anxiety [3]: improved

Reference: patent US20260306460A1, “COMPOSITION FOR REMOVING AND INHIBITING SENESCENT CELLS, AND USES THEREOF” (LIFECEUTIX CO., LTD., priority 2023, published 2026)
